In PubChem BioAssay (NCI):
Values joined by “and” are separate entries in the source; they are usually repeats but may differ in a detail not shown here. Equal values may be shown once.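 48-hour exposure; five concentrations; linearly interpolated endpoints. The concentration for 50% growth inhibition is given as GI50. TGI marks complete inhibition of growth.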

Experiments:
Assay in all cases: NCI anticancer screen, dose series, 48 h
A498 renal = tested on: A498 renal
SK-MEL-2 melanoma = tested on: SK-MEL-2 melanoma
MOLT-4 leukemia = tested on: MOLT-4 leukemia
HOP-62 NSCLC = tested on: HOP-62 NSCLC
786-0 renal = tested on: 786-0 renal
SK-MEL-28 melanoma = tested on: SK-MEL-28 melanoma
K-562 leukemia = tested on: K-562 leukemia
UO-31 renal = tested on: UO-31 renal
SK-OV-3 ovarian = tested on: SK-OV-3 ovarian
SNB-75 CNS = tested on: SNB-75 CNS

Structure (SMILES)	GI50 (A498 renal) [µM]	TGI (A498 renal) [µM]	GI50 (SK-MEL-2 melanoma) [µM]	TGI (SK-MEL-2 melanoma)	GI50 (MOLT-4 leukemia) [µM]	TGI (MOLT-4 leukemia)	GI50 (HOP-62 NSCLC) [µM]	TGI (HOP-62 NSCLC)	GI50 (786-0 renal) [µM]	TGI (786-0 renal)	GI50 (SK-MEL-28 melanoma) [µM]	TGI (SK-MEL-28 melanoma)	GI50 (K-562 leukemia) [µM]	TGI (K-562 leukemia) [µM]	GI50 (UO-31 renal) [µM]	TGI (UO-31 renal)	GI50 (SK-OV-3 ovarian) [µM]	TGI (SK-OV-3 ovarian) [µM]	GI50 (SNB-75 CNS)	TGI (SNB-75 CNS) [µM]
C[C@@H](C[C@H](CCO)c1ccccc1)c1ccc2ccccc2c1	1.16	2.42	1.52	3.02 µM	0.356	1.61 µM	1.52	2.99 µM	1.51	2.89 µM	1.64	3.06 µM	1.63	3.82	1.54	2.88 µM	1.7	3.1	1.35 µM	2.76
O=S(=O)(Nc1ccc(Cl)c(Cl)c1)c1ccc(-c2cnc(C3CC3)o2)cc1	0.273	2.9	2.43	24.4 µM	0.659	> 63.6 µM	0.524	16.7 µM	0.668	18.8 µM	4.19	21.5 µM	0.28	> 38.3	0.498	15.9 µM	0.713	39.7	0.138 µM	0.558
Cc1ccc(C)c(NC(=O)C(=O)Nn2c(=S)[nH]c3ccccc3c2=O)c1		> 100		> 100 µM		> 100 µM		> 100 µM		> 100 µM		> 100 µM		> 100		> 100 µM		> 100		> 100
C[C@H]1CCC2C(OC(=O)[C@@H]2CN(C)C)[C@]2(C)C(=O)C=CC12O (stereo partly drawn)		31.2		> 54.4 µM		20.2 µM		45.6 µM		11.2 µM		8.35 µM		> 55		30.8 µM		38.6		27.1
O=C1CC2OCC=C3CN4CCC5(C(=O)O)C(N1)C2C3CC45 (stereo not drawn)		> 100		> 100 µM		> 100 µM		> 100 µM		> 100 µM		> 100 µM		> 100		> 100 µM		> 100		> 100
CN1C/C(=C\c2ccc(C(=O)O)cc2)C(=O)/C(=C/c2ccc(C(=O)O)cc2)C1		> 100		> 100 µM		> 100 µM		> 100 µM		> 100 µM		> 100 µM		> 100		> 100 µM		> 100		> 100
NC1=Nc2ccccc2Sc2ccccc21		> 100		> 100 µM		> 100 µM		> 100 µM		> 100 µM		> 100 µM		> 100		> 100 µM		> 100		53.2
C[C@@H]1Cc2c(ccc3[nH]ncc23)[C@@H](c2ccc(NC3CN(CCCF)C3)cn2)N1CC(F)(F)F	15.6	36.6	19	42.9 µM	19.6	> 100 µM	15.3	34.8 µM	14.4	28.4 µM	16.5	32.1 µM	19.4	54.9	12.6	26.8 µM	14.3	37.1	12.7 µM	> 100
Cc1nc(-n2nc(-c3ccccc3)cc2-c2ccccc2)sc1C(=O)/C=C/c1cccc([N+](=O)[O-])c1		51.9		34.2 µM		22.4 µM		38.1 µM		25.3 µM		34.1 µM		28.3		23.7 µM		> 100		51.7
CCN(CC)CCNc1ccc([N+](=O)[O-])c2nc3ccc(OC)cc3c(N)c12		3.08		3.22 µM		1.61 µM		3.74 µM		1.66 µM		3.37 µM		0.665		3.13 µM		3.58		3.64
O=C(N/N=C/c1ccc(N(CCCl)CCCl)cc1)c1ccc(C(=O)N/N=C/c2ccc(N(CCCl)CCCl)cc2)cc1	15.1	> 100	2.13	33.3 µM	0.226	> 100 µM	0.653	> 100 µM	2.55	> 100 µM	> 100	> 100 µM	20.9	> 100	> 100	> 100 µM	10.5	> 100	6.74 µM	> 100
C=C(CN1CCN(c2ccc(F)c(Cl)c2)CC1)c1ccc(C(=O)Nc2ccccc2N)cc1	9.67	44.1	6.12	64 µM	0.764	4 µM	3.09	16.4 µM	2.88	13.4 µM	0.529	> 100 µM	2.41	14.2	2.28	12.1 µM	> 100	> 100	> 100 µM	> 100
Cc1c2ccccc2c(C)n2c1nc1cc(Cl)c(Cl)cc12	> 100	> 100	> 100	> 100 µM	16	8.62 µM and 46.5 µM	> 100	> 100 µM	> 100	> 100 µM	> 100	> 100 µM	14.3	72.1	8.14	> 100 µM	> 100	> 100	36.9 µM	> 100
Nc1ccn(C2CC3OCC3O2)c(=O)n1 (stereo not drawn)		> 100		> 100 µM		> 100 µM		> 100 µM		> 100 µM		> 100 µM		> 100		> 100 µM		> 100		> 100
COC(=O)Nc1nc2ccc(C(=O)c3cccs3)cc2[nH]1	0.203	1.58	20	12.1 µM and > 100 µM	0.269	13 µM and > 100 µM	1.11	32.8 µM and > 100 µM	0.261	29.8 µM and > 100 µM	0.376	61.8 µM and > 100 µM		42.5	3.23	38.2 µM and > 100 µM	0.347		< 0.0192 µM and 0.171 µM	> 100
Cc1cn2cc(-c3ccc4c(c3)CC(=O)N4)nc2s1	> 100	> 100	> 100	> 100 µM	50.7	> 100 µM	64.7	> 100 µM	> 100	> 100 µM	> 100	> 100 µM	61.9	> 100	> 100	> 100 µM	> 100	> 100	> 100 µM	> 100
